For one test, the target named is ACVR1B (human) (UniProt P36896). As to the kind of experiment: radiometric filter-binding kinase assay, Kinase HotSpot. To be noted: compound 0.5 µM; ATP 10 µM.
Sequence of JAK2 JH1 JH2 (human) (O60674 whole entry, looked up): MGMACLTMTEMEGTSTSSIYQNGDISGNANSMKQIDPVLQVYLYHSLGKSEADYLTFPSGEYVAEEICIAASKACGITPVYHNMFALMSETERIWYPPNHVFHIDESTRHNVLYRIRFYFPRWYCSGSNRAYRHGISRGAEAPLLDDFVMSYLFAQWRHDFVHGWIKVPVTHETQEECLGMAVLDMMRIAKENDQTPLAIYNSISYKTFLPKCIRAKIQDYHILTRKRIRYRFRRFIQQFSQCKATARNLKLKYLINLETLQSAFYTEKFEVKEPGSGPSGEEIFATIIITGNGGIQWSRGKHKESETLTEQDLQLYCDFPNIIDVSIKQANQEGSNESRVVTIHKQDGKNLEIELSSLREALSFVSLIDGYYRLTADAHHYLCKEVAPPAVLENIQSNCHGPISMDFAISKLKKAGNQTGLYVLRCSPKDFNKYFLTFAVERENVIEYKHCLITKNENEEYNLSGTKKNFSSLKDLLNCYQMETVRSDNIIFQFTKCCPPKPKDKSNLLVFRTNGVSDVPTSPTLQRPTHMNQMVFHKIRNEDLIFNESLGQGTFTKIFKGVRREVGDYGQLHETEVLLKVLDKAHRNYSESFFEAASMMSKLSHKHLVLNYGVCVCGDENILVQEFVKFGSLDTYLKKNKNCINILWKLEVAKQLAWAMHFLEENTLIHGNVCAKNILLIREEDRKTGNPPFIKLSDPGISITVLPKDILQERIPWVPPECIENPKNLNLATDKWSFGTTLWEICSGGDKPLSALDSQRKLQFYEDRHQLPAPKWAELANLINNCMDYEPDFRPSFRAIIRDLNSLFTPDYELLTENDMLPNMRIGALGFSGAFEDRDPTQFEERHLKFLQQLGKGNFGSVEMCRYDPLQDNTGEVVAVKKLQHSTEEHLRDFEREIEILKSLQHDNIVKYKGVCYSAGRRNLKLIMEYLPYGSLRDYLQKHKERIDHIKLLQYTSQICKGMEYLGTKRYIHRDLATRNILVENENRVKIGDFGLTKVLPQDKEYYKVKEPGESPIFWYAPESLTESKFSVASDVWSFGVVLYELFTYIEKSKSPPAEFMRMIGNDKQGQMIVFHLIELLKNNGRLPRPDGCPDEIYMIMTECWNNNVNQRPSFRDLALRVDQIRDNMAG
Sequence of DDR2 (human) (Q16832 whole entry, looked up): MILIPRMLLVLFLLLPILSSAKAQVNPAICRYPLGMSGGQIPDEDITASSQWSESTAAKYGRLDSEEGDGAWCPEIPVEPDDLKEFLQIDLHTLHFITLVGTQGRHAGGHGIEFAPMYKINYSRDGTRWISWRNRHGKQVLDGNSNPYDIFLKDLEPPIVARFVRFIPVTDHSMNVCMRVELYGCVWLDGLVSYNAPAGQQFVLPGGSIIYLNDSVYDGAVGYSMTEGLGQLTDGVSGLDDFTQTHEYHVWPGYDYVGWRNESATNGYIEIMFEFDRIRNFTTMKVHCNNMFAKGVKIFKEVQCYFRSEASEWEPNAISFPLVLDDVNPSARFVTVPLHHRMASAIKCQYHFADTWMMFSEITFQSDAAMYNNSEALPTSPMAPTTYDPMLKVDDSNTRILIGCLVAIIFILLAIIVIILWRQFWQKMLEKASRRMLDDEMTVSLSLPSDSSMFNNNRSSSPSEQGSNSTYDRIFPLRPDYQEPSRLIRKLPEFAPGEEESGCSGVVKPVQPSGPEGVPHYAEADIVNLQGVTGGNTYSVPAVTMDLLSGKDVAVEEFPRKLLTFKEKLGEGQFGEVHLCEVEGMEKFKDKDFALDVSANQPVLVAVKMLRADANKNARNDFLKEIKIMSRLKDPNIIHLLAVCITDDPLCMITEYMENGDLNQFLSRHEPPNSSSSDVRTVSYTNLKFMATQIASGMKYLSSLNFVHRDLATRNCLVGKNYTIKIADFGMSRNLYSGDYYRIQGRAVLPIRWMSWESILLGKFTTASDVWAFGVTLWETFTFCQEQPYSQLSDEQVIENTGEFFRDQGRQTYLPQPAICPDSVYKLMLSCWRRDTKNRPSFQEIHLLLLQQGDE
A word on the residual activity: it is the signal under treatment as a percentage of the control signal. In the case of `Cc1ccc(S(=O)(=O)/C=C/C#N)cc1`, the residual activity turned out to be 107%.

Turning to `O=C1NC(=O)c2c1c1c3ccccc3n3c1c1c2c2ccccc2n1C1CCC3O1`, the residual activity turned out to be 113%.

On to `CCN(CC)C(=O)c1ccc(Nc2nc(OCC3CCCCC3)c3nc[nH]c3n2)cc1`, for which the residual activity was 101%.

The next test addresses AURKB (human) (UniProt Q96GD4). The description is as above. The note with it: compound 0.5 µM; ATP 10 µM.
In the case of `Cc1ccc(S(=O)(=O)/C=C/C#N)cc1`, the residual activity worked out at 92.3%.

Turning to `O=C1NC(=O)c2c1c1c3ccccc3n3c1c1c2c2ccccc2n1C1CCC3O1`, the residual activity was 9.52%.

For the compound `CCN(CC)C(=O)c1ccc(Nc2nc(OCC3CCCCC3)c3nc[nH]c3n2)cc1`, the residual activity is 30.1%.

In a further test the target is CAMK1D (human) (UniProt Q8IU85). The description is as above. The note with it: compound 0.5 µM; ATP 10 µM.
On to `Cc1ccc(S(=O)(=O)/C=C/C#N)cc1`, for which the residual activity was 108%.

Regarding `O=C1NC(=O)c2c1c1c3ccccc3n3c1c1c2c2ccccc2n1C1CCC3O1`, the residual activity amounted to 33.6%.

As to `CCN(CC)C(=O)c1ccc(Nc2nc(OCC3CCCCC3)c3nc[nH]c3n2)cc1`, the residual activity turned out to be 101%.

For the next test, the target named is CDK1 CCNA2 (human) (UniProt P06493+P20248). Described as above. The note with it: compound 0.5 µM; ATP 10 µM.
Turning to `Cc1ccc(S(=O)(=O)/C=C/C#N)cc1`, the residual activity worked out at 96.7%.

On to `O=C1NC(=O)c2c1c1c3ccccc3n3c1c1c2c2ccccc2n1C1CCC3O1`, for which the residual activity came to 61.7%.

Regarding `CCN(CC)C(=O)c1ccc(Nc2nc(OCC3CCCCC3)c3nc[nH]c3n2)cc1`, the residual activity came to 95.2%.

Another test deals with CDK6 CCND1 (human) (UniProt Q00534+P24385). The test is described as above. The note with it: compound 0.5 µM; ATP 10 µM.
For the compound `Cc1ccc(S(=O)(=O)/C=C/C#N)cc1`, the residual activity was found to be 91.4%.

Consider `O=C1NC(=O)c2c1c1c3ccccc3n3c1c1c2c2ccccc2n1C1CCC3O1`, for which the residual activity is 6.06%.

In the case of `CCN(CC)C(=O)c1ccc(Nc2nc(OCC3CCCCC3)c3nc[nH]c3n2)cc1`, the residual activity was 52.9%.

The target of the next test is CHUK (human) (UniProt O15111). The description is as above. The note with it: compound 0.5 µM; ATP 10 µM.
Sequence of CHUK (human) (O15111 whole entry, looked up): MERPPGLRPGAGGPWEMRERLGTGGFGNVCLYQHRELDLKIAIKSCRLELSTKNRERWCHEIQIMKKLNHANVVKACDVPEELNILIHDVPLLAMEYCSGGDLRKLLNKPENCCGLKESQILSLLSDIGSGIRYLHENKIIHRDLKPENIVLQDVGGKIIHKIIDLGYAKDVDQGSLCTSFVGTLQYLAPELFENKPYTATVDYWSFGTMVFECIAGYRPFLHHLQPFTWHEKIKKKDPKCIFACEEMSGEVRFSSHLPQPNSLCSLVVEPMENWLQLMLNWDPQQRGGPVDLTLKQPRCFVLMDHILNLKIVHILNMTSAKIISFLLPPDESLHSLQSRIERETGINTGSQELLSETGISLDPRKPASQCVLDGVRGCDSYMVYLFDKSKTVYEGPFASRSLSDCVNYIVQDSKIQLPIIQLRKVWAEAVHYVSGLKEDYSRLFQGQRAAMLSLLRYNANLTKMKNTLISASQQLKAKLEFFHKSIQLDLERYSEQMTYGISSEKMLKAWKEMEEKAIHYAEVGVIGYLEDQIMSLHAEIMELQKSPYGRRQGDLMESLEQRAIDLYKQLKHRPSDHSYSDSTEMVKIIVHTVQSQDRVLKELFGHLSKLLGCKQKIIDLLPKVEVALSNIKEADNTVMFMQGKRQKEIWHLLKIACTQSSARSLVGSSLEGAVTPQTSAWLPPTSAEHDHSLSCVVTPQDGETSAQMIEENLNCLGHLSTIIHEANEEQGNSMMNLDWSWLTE
`Cc1ccc(S(=O)(=O)/C=C/C#N)cc1`: the residual activity came out at 87.3%.

With `O=C1NC(=O)c2c1c1c3ccccc3n3c1c1c2c2ccccc2n1C1CCC3O1`, the residual activity was found to be 106%.

Regarding `CCN(CC)C(=O)c1ccc(Nc2nc(OCC3CCCCC3)c3nc[nH]c3n2)cc1`, the residual activity came out at 103%.

The next test deals with CLK2 (human) (UniProt P49760). Described as above. To be noted: compound 0.5 µM; ATP 10 µM.
Sequence of CLK2 (human) (P49760 whole entry, looked up): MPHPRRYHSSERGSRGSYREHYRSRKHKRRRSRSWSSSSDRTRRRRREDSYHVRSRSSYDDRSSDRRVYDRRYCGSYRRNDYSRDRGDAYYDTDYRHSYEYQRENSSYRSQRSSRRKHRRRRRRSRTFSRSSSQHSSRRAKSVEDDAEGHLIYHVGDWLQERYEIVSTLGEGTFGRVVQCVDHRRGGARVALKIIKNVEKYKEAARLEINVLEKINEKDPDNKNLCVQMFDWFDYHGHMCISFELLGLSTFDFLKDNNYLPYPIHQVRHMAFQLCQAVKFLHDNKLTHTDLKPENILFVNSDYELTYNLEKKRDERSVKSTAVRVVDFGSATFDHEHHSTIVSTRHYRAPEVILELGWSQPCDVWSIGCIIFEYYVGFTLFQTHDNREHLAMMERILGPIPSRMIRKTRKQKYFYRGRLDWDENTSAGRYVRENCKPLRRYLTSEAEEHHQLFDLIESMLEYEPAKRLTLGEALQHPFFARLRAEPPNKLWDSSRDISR
As to `Cc1ccc(S(=O)(=O)/C=C/C#N)cc1`, the residual activity was 103%.

As for `O=C1NC(=O)c2c1c1c3ccccc3n3c1c1c2c2ccccc2n1C1CCC3O1`, the residual activity is 52.1%.

Consider `CCN(CC)C(=O)c1ccc(Nc2nc(OCC3CCCCC3)c3nc[nH]c3n2)cc1`, for which the residual activity is 40.6%.

For the next test, the target named is CSNK1E (human) (UniProt P49674). Described as above. The note with it: compound 0.5 µM; ATP 10 µM.
Regarding `Cc1ccc(S(=O)(=O)/C=C/C#N)cc1`, the residual activity was 107%.

With `O=C1NC(=O)c2c1c1c3ccccc3n3c1c1c2c2ccccc2n1C1CCC3O1`, the residual activity stood at 47.3%.

With `CCN(CC)C(=O)c1ccc(Nc2nc(OCC3CCCCC3)c3nc[nH]c3n2)cc1`, the residual activity was 95.6%.

In a further test the target is CSNK2A2 (human) (UniProt P19784). Described as above. To be noted: compound 0.5 µM; ATP 10 µM.
With `Cc1ccc(S(=O)(=O)/C=C/C#N)cc1`, the residual activity was determined as 97.9%.

Take `O=C1NC(=O)c2c1c1c3ccccc3n3c1c1c2c2ccccc2n1C1CCC3O1`: the residual activity was 4.47%.

As for `CCN(CC)C(=O)c1ccc(Nc2nc(OCC3CCCCC3)c3nc[nH]c3n2)cc1`, the residual activity was 90.9%.

The next test concerns the target DAPK1 (human) (UniProt P53355). The description is as above. To be noted: compound 0.5 µM; ATP 10 µM.
Turning to `Cc1ccc(S(=O)(=O)/C=C/C#N)cc1`, the residual activity is 100%.

`O=C1NC(=O)c2c1c1c3ccccc3n3c1c1c2c2ccccc2n1C1CCC3O1`: the residual activity was 32.7%.

As for `CCN(CC)C(=O)c1ccc(Nc2nc(OCC3CCCCC3)c3nc[nH]c3n2)cc1`, the residual activity came to 81.6%.

A further test has as its target DDR2 (human) (UniProt Q16832). The test is described as above. The note with it: compound 0.5 µM; ATP 10 µM.
Take `Cc1ccc(S(=O)(=O)/C=C/C#N)cc1`: the residual activity stood at 96.4%.

For `O=C1NC(=O)c2c1c1c3ccccc3n3c1c1c2c2ccccc2n1C1CCC3O1`, the residual activity is 80.1%.

On to `CCN(CC)C(=O)c1ccc(Nc2nc(OCC3CCCCC3)c3nc[nH]c3n2)cc1`, for which the residual activity is 109%.

Another test addresses ERBB2 (human) (UniProt P04626). The description is as above. The note with it: compound 0.5 µM; ATP 10 µM.
Take `Cc1ccc(S(=O)(=O)/C=C/C#N)cc1`: the residual activity turned out to be 94.2%.

For `O=C1NC(=O)c2c1c1c3ccccc3n3c1c1c2c2ccccc2n1C1CCC3O1`, the residual activity was determined as 98.4%.

Turning to `CCN(CC)C(=O)c1ccc(Nc2nc(OCC3CCCCC3)c3nc[nH]c3n2)cc1`, the residual activity came to 99.4%.

The next test has as its target ERBB4 (human) (UniProt Q15303). The description is as above. The note with it: compound 0.5 µM; ATP 10 µM.
For the compound `Cc1ccc(S(=O)(=O)/C=C/C#N)cc1`, the residual activity is 99.7%.

`O=C1NC(=O)c2c1c1c3ccccc3n3c1c1c2c2ccccc2n1C1CCC3O1`: the residual activity amounted to 72.5%.

Take `CCN(CC)C(=O)c1ccc(Nc2nc(OCC3CCCCC3)c3nc[nH]c3n2)cc1`: the residual activity amounted to 91%.

For the next test, the target named is FGFR1 (human) (UniProt P11362). Described as above. The note with it: compound 0.5 µM; ATP 10 µM.
Sequence of FGFR1 (human) (P11362 whole entry, looked up): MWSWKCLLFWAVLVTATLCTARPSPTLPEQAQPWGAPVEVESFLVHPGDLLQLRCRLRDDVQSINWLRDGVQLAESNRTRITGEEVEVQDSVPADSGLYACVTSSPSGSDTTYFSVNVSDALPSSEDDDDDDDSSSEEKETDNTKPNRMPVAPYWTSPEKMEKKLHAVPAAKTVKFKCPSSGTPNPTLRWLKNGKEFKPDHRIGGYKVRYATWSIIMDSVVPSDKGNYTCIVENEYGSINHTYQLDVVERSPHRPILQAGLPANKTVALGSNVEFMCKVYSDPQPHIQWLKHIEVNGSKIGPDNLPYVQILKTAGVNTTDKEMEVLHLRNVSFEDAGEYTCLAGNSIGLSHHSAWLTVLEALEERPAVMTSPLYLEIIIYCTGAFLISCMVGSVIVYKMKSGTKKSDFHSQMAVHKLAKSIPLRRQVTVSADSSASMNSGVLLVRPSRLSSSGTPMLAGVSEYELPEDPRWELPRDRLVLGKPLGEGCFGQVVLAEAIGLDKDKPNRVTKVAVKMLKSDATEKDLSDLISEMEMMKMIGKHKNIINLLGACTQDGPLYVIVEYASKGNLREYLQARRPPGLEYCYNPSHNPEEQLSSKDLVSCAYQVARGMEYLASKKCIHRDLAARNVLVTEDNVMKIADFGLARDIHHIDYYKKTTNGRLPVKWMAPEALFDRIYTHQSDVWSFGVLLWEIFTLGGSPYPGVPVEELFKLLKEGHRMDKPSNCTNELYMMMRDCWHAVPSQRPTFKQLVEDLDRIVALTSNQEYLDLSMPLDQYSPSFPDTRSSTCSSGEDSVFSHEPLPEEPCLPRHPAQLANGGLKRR
Turning to `Cc1ccc(S(=O)(=O)/C=C/C#N)cc1`, the residual activity worked out at 106%.

Regarding `O=C1NC(=O)c2c1c1c3ccccc3n3c1c1c2c2ccccc2n1C1CCC3O1`, the residual activity turned out to be 29.1%.

For the compound `CCN(CC)C(=O)c1ccc(Nc2nc(OCC3CCCCC3)c3nc[nH]c3n2)cc1`, the residual activity is 72.8%.

For the next test, the target named is FGFR2 (human) (UniProt P21802). The description is as above. The note with it: compound 0.5 µM; ATP 10 µM.
Sequence of FGFR2 (human) (P21802 whole entry, looked up): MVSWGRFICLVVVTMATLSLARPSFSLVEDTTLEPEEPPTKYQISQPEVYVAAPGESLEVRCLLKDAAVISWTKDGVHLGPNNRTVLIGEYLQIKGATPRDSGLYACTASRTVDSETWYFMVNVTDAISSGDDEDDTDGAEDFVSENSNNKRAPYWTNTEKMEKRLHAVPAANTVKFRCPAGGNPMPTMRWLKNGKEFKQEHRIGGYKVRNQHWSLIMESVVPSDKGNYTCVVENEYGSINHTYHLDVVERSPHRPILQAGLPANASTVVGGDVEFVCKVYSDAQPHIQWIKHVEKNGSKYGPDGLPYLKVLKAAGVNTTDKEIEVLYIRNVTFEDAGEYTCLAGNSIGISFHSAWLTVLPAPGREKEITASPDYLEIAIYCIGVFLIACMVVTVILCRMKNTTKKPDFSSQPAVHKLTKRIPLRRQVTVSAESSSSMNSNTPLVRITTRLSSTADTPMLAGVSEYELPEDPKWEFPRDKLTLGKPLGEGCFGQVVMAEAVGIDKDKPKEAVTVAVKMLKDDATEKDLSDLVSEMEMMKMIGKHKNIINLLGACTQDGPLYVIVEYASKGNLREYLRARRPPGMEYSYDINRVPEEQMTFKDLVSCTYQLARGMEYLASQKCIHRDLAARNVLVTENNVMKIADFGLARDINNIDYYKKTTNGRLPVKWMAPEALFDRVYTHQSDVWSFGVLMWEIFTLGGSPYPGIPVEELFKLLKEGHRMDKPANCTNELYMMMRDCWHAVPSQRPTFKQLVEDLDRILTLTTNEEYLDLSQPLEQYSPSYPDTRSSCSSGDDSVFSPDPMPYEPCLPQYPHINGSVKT
In the case of `Cc1ccc(S(=O)(=O)/C=C/C#N)cc1`, the residual activity was 102%.

As to `O=C1NC(=O)c2c1c1c3ccccc3n3c1c1c2c2ccccc2n1C1CCC3O1`, the residual activity was 34.1%.

Take `CCN(CC)C(=O)c1ccc(Nc2nc(OCC3CCCCC3)c3nc[nH]c3n2)cc1`: the residual activity is 76.6%.

The target in the next test is GRK7 (human) (UniProt Q8WTQ7). Described as above. To be noted: compound 0.5 µM; ATP 10 µM.
Turning to `Cc1ccc(S(=O)(=O)/C=C/C#N)cc1`, the residual activity was 92.6%.

Take `O=C1NC(=O)c2c1c1c3ccccc3n3c1c1c2c2ccccc2n1C1CCC3O1`: the residual activity was 53.4%.

On to `CCN(CC)C(=O)c1ccc(Nc2nc(OCC3CCCCC3)c3nc[nH]c3n2)cc1`, for which the residual activity is 103%.

Another test has as its target JAK2 JH1 JH2 (human) (UniProt O60674). The description is as above. The note with it: compound 0.5 µM; ATP 10 µM.
`Cc1ccc(S(=O)(=O)/C=C/C#N)cc1`: the residual activity was determined as 99.5%.

`O=C1NC(=O)c2c1c1c3ccccc3n3c1c1c2c2ccccc2n1C1CCC3O1`: the residual activity turned out to be 14.2%.

For `CCN(CC)C(=O)c1ccc(Nc2nc(OCC3CCCCC3)c3nc[nH]c3n2)cc1`, the residual activity was 4.21%.

For another test, the target named is LCK (human) (UniProt P06239). The description is as above. To be noted: compound 0.5 µM; ATP 10 µM.
Take `Cc1ccc(S(=O)(=O)/C=C/C#N)cc1`: the residual activity worked out at 93.7%.

In the case of `O=C1NC(=O)c2c1c1c3ccccc3n3c1c1c2c2ccccc2n1C1CCC3O1`, the residual activity amounted to 36.2%.

As to `CCN(CC)C(=O)c1ccc(Nc2nc(OCC3CCCCC3)c3nc[nH]c3n2)cc1`, the residual activity stood at 39.8%.

Another test addresses MAP2K1 (human) (UniProt Q02750). Described as above. To be noted: compound 0.5 µM; ATP 10 µM.
`Cc1ccc(S(=O)(=O)/C=C/C#N)cc1`: the residual activity came to 93.9%.

As for `O=C1NC(=O)c2c1c1c3ccccc3n3c1c1c2c2ccccc2n1C1CCC3O1`, the residual activity was 29.5%.

On to `CCN(CC)C(=O)c1ccc(Nc2nc(OCC3CCCCC3)c3nc[nH]c3n2)cc1`, for which the residual activity was determined as 94.1%.

The target of a further test is MAP3K11 (human) (UniProt Q16584). Described as above. To be noted: compound 0.5 µM; ATP 10 µM.
On to `Cc1ccc(S(=O)(=O)/C=C/C#N)cc1`, for which the residual activity stood at 98.2%.

The values above are taken from the kinase profiling compilation of Christmann-Franck et al. (2016).
